Data as given in ChEMBL document CHEMBL1149398, “Pyrrolizidine esters and amides as 5-HT4 receptor agonists and antagonists” (J Med Chem, 2006).

Key:
Salmonella typhi = test: Mutagenic activity in a GLP study using Salmonella Typhimurium TA1535 in presence of S9 fraction at 7.2-3600 ug/plate; type: toxicity, organism-based; settings: salmonella enterica subsp. enterica […]
[1] = molecular target: Serotonin 3 receptor (5HT3) (Mus musculus) (UniProt Q9JHJ5+P23979); test: Antagonism at 5HT3 receptor in mice by von Bezold-Jarisch reflex inhibition at 1 mg/kg, ip; type: functional, organism-based; set-up: dose 1 mg/kg
Serotonin 3 receptor (5HT3) (Mus musculus), sequence (P23979 whole entry, looked up): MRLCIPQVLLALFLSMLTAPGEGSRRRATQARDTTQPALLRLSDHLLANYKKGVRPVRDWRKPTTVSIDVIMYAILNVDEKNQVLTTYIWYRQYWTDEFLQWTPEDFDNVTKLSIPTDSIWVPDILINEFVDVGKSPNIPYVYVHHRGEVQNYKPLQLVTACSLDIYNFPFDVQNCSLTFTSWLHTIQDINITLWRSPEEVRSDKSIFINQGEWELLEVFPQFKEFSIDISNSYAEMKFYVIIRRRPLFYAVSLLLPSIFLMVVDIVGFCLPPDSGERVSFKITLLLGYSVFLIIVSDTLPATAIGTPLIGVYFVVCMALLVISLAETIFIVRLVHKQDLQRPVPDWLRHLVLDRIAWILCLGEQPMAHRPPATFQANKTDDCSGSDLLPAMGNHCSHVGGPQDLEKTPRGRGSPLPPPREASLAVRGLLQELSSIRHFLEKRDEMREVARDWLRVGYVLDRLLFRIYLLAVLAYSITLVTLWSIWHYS
Serotonin 3 receptor (5HT3) (Mus musculus), sequence (Q9JHJ5 whole entry, looked up): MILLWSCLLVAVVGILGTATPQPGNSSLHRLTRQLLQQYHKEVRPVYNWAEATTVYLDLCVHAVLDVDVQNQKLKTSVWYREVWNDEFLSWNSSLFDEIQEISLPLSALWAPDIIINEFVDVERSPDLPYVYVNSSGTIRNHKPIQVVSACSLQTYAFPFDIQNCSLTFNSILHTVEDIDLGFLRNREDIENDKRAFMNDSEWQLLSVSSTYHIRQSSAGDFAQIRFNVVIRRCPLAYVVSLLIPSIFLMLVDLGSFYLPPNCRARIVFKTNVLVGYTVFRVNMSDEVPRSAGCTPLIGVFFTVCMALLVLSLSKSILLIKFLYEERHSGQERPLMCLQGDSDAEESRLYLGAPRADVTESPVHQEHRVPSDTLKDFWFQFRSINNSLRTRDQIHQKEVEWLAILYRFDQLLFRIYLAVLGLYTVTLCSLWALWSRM

COc1cc(N)c(Cl)cc1C(=O)NC[C@@H]1CCN2CCC[C@@H]12
Activity (Salmonella typhi): Active
inhibition [1]: 7%
